The record followed here is patent US20080112899A1, “Carboxamides and Their Use” (priority 2004, published 2008).

The test system of the assay is trained panel of 4 to 8 people. Kind of assay: Cooling intensity by isointensity method, trained panel tasting aqueous solutions versus WS 23. The class given is in vivo, human. The following applies: aqueous solutions tasted, compared to aqueous solution of reference WS 23 at 2 ppm. Here is the method:
The cooling intensity of the compounds was determined by a trained panel of 4 to 8 people according to the isointensity method as described below.
Aqueous solutions of various concentrations of a chemical compound are prepared and tasted. The cooling intensity of each solution was compared to that of an aqueous solution of the reference compound at 2 ppm, namely N,2,3-trimethyl-2-isopropylbutanamde (WS 23).

The structures appear in SMILES notation.

In turn, `CC(C)C(C(=O)Nc1ccc(C#N)cc1)C(C)C` [Ex. 1, N-(4-cyanophenyl) 2-isopropylisovaleramide] returned a rel. cooling intensity of 1.3. To `CC(C)C(C)(C(=O)Nc1ccc(C#N)cc1)C(C)C` [Ex. 2A, N-(4-Cyanophenyl)2-methyl-2-isopropylisovaleramide] belongs 1.5; to `COc1ccc(NC(=O)C(C)(C(C)C)C(C)C)cc1` [Ex. 2B, N-(4-Methoxyphenyl)2-methyl-2-isopropylisovaleramide], 1.1. As for `CC(C)C(C)(C(=O)Nc1ccc(CC#N)cc1)C(C)C` [Ex. 2C, N-(4-Cyanomethyl-phenyl)-2-methyl-2-isopropyl-isovaleramide], the figure is 0.2. Turning to `COc1ccc(NC(=O)C(C(C)C)C(C)C)cc1` [Ex. 2E, N-(4-Methoxyphenyl)2-isopropylisovaleramide], the rel. cooling intensity is 1.1.

In turn, `CC(C)C(C(=O)Nc1ccccc1C#N)C(C)C` [Ex. 2F, N-(2-Cyanophenyl)2-isopropylisovaleramide] yielded a rel. cooling intensity of 1.7.

In turn, `COc1ccc(NC(=O)C(C)(C(C)C)C(C)C)c(OC)c1` [Ex. 2G] yielded a rel. cooling intensity of 0.9. To `CC(C)C(C)(C(=O)Nc1ccc2c(c1)OCO2)C(C)C` [Ex. 2H, N-Benzo[1,3]dioxol-5-yl 2-methyl-2-isopropylisovaleramide] belongs 0.9. As for `COc1cc(CNC(=O)C(C)(C(C)C)C(C)C)ccc1O` [Ex. 2I, N-Vanillyl 2-methyl-2-isopropylisovaleramide], the figure is 0.8.
